Data reported in patent US20240199584A1, “KRAS INHIBITORS” (Bristol-Myers Squibb Company, priority 2022, published 2024).
pIC50: −log10 of the molar value. Like-named read-outs stand apart in the source and are kept apart here.

How the values were obtained:
[1] = target: T1, KRAS G12A (Homo sapiens, UniProt P01116, G12A); experiment: Cellular KRAS:RAF Disruption Assay (NanoBRET), KRAS G12A; type: cell-based; conditions: HEK293 T cells co-expressing RAF1 and KRAS G12A, 24 hours; read-out: RAS::RAF binding via NanoBRET IC50, KRAS G12A
T1 construct: expressed in transfected cells
T1 sequence (P01116 1-188 isoform P01116-2 G12A): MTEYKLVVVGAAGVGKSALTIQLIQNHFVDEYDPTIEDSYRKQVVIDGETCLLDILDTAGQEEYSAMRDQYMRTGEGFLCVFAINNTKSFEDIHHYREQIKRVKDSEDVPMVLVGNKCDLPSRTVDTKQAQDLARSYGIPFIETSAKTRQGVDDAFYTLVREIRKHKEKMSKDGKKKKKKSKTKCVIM
Experimental: (§1) Cellular KRAS:RAF Disruption Assay
(§2) Stable cell lines (HEK293 T) were generated to co-express RAF1 and mutant or wild type KRAS, as indicated, using the BiBRET vector (Promega). Engineered cell lines were suspended in media (OptiMEM, […]), plated in 384-well plates (8000 cells/well), and allowed to rest for 1.5 hours. Cells were treated with compounds for 24 hours, and NanoBRET NanoGlo substrate (Promega) was added per the manufacturer's instructions.

[2] = target: T2, KRAS G12C (Homo sapiens, UniProt P01116, G12C); experiment: Cellular KRAS:RAF Disruption Assay (NanoBRET), KRAS G12C; type: cell-based; conditions: HEK293 T cells co-expressing RAF1 and KRAS G12C, 24 hours; read-out: RAS::RAF binding via NanoBRET IC50, KRAS G12C
T2 construct: expressed in transfected cells
T2 sequence (P01116 1-188 isoform P01116-2 G12C): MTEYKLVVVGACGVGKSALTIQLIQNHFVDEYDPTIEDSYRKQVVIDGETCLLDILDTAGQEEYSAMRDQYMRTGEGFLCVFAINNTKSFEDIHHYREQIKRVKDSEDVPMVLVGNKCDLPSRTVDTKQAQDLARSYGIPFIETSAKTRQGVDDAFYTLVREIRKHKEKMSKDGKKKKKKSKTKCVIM
Experimental: as §1, §2

[3] = target: T3, KRAS G12V (Homo sapiens, UniProt P01116, G12V); experiment: Cellular KRAS:RAF Disruption Assay (NanoBRET), KRAS G12V; type: cell-based; conditions: HEK293 T cells co-expressing RAF1 and KRAS G12V, 24 hours; read-out: RAS::RAF binding via NanoBRET IC50, KRAS G12V
T3 construct: expressed in transfected cells
T3 sequence (P01116 1-188 isoform P01116-2 G12V): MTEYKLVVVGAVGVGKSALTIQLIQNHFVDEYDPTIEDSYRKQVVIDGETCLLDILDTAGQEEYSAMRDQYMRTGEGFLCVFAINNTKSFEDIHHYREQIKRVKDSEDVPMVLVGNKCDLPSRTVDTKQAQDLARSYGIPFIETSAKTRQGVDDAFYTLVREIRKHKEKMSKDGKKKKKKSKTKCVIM
Experimental: as §1, §2

[4] = target: T4, KRAS WT (Homo sapiens, UniProt P01116); experiment: Cellular KRAS:RAF Disruption Assay (NanoBRET), KRAS WT; type: cell-based; conditions: HEK293 T cells co-expressing RAF1 and wild type KRAS, 24 hours; read-out: RAS::RAF binding via NanoBRET IC50, KRAS WT
T4 construct: expressed in transfected cells
T4 sequence (P01116 1-188 isoform P01116-2): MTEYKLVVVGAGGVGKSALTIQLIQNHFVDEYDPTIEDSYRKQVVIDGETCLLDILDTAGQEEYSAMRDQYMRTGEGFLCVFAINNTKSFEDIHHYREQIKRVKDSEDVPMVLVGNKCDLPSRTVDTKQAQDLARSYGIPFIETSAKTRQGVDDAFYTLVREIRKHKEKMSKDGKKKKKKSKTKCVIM
Experimental: as §1, §2

[5] = target: T5, KRAS G12D (Homo sapiens, UniProt P01116, G12D); experiment: biochemical
T5 sequence (P01116 1-188 isoform P01116-2 G12D): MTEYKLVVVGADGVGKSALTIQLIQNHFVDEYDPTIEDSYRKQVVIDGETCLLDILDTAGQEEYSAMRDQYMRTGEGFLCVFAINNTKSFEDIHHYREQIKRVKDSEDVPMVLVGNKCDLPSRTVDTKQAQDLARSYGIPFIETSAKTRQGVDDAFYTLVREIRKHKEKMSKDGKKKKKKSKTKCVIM

[6] = target: T5, KRAS G12D; experiment: biochemical; remark: listed apart in the source

Structure (SMILES)	pIC50 [1]	pIC50 [2]	pIC50 [3]	pIC50 [4]	pIC50 [5]	pIC50 [6]
C#Cc1c(F)ccc2cc(O)cc(-c3ncc4c(N5CCCC(C)(O)C5)nc(OC[C@]56CCC[C@H]5N(C)CCC6)nc4c3F)c12 (single isomer, unassigned) [Example 1-89]	8.32	8.03	7.70	8.07		
C#Cc1c(F)ccc2cc(O)cc(-c3ncc4c(N5CCOC6CC65)nc(OC[C@]56CCC[C@H]5N(C)CCC6)nc4c3F)c12 (single isomer, unassigned) [Example 1-99]	7.92	7.96	6.90	8.52		
C#Cc1c(F)ccc2cc(O)cc(-c3ncc4c(N5C[C@H]6C[C@@H]5CO6)nc(OC[C@@]56CCCN5C[C@H](F)C6)nc4c3F)c12 [Example 1-37, 4-(2-{[(2R,7aS)-2-fluoro-hexahydro-1H-pyrrolizin-7a-yl]methoxy}-8-fluoro-4-[(1R,4R)-2-oxa-5-azabicyclo[2.2.1]heptan-5-yl]pyrido[4,3-d]pyrimidin-7-yl)-5-ethynyl-6-fluoronaphthalen-2-ol]	7.98	7.78	7.26			
C#Cc1c(F)ccc2cc(O)cc(-c3ncc4c(N5CC6COC(C6)C5)nc(OC[C@@]56CCCN5C[C@H](F)C6)nc4c3F)c12 (stereo partly drawn) [Example 1-90, 4-(2-{[(2R,7aS)-2-fluoro-hexahydro-1H-pyrrolizin-7a-yl]methoxy}-8-fluoro-4-{6-oxa-3-azabicyclo [3.2.1]octan-3-yl}pyrido[4,3-d]pyrimidin-7-yl)-5-ethynyl-6-fluoronaphthalen-2-ol]	7.71	7.38	6.71	7.92		
C#Cc1c(F)ccc2cc(O)cc(-c3ncc4c(N5CCOC6CC65)nc(OC[C@@]56CCCN5C[C@H](F)C6)nc4c3F)c12 (stereo partly drawn) [Example 1-100, 4-(2-{[(2R,7aS)-2-fluoro-hexahydro-1H-pyrrolizin-7a-yl]methoxy}-8-fluoro-4-{2-oxa-5-azabicyclo[4.1.0]heptan-5-yl}pyrido[4,3-d]pyrimidin-7-yl)-5-ethynyl-6-fluoronaphthalen-2-ol]	8.34	7.89	6.93	7.91		
C#Cc1c(F)ccc2cc(O)cc(-c3ncc4c(N5CCOCC(F)(F)C5)nc(OC[C@]56CCC[C@H]5N(C)CCC6)nc4c3F)c12 [Example 1-107, 4-(2-{[(4aS,7aR)-1-methyl-octahydro-1H-cyclopenta[b]pyridin-4a-yl]methoxy}-4-(6,6-difluoro-1,4-oxazepan-4-yl)-8-fluoropyrido[4,3-d]pyrimidin-7-yl)-5-ethynyl-6-fluoronaphthalen-2-ol]	8.28	8.01	6.88	8.01		
C#Cc1c(F)ccc2cc(O)cc(-c3ncc4c(N5CCOCC(C)(O)C5)nc(OC[C@]56CCC[C@H]5N(C)CCC6)nc4c3F)c12 (stereo partly drawn) [Example 1-108, 4-(2-{[(4aS,7aR)-1-methyl-octahydro-1H-cyclopenta[b]pyridin-4a-yl]methoxy}-7-(8-ethynyl-7-fluoro-3-hydroxynaphthalen-1-yl)-8-fluoropyrido[4,3-d]pyrimidin-4-yl)-6-methyl-1,4-oxazepan-6-ol]	7.88	7.73	6.85	7.76		
C#Cc1c(F)ccc2cc(O)cc(-c3ccc4c(N5CC6C(C5)C6(C)C)nc(OC[C@@]56CCCN5C[C@H](F)C6)nc4c3F)c12 (stereo partly drawn) [Example 2-11, 4-(2-{[(2R,7aS)-2-fluoro-hexahydro-1H-pyrrolizin-7a-yl]methoxy}-4-{6,6-dimethyl-3-azabicyclo[3.1.0]hexan-3-yl}-8-fluoroquinazolin-7-yl)-5-ethynyl-6-fluoronaphthalen-2-ol]					5.58	5.58
C#Cc1c(F)ccc2cc(O)cc(-c3ccc4c(N5CCC(S(=O)(=O)N(C)C)CC5)nc(OC[C@@]56CCCN5C[C@H](F)C6)nc4c3F)c12 [Example 2-19, 1-(2-{[(2R,7aS)-2-fluoro-hexahydro-1H-pyrrolizin-7a-yl]methoxy}-7-(8-ethynyl-7-fluoro-3-hydroxynaphthalen-1-yl)-8-fluoroquinazolin-4-yl)-N,N-dimethylpiperidine-4-sulfonamide]					< 4.00	5.62
C#Cc1c(F)ccc2cc(O)cc(-c3ccc4c(N5CCCC(C)(O)C5)nc(OC[C@]56CCC[C@H]5N(C)CCC6)nc4c3F)c12 (stereo partly drawn) [Example 2-72, 1-(2-{[(4aS,7aR)-1-methyl-octahydro-1H-cyclopenta[b]pyridin-4a-yl]methoxy}-7-(8-ethynyl-7-fluoro-3-hydroxynaphthalen-1-yl)-8-fluoroquinazolin-4-yl)-3-methylpiperidin-3-ol]	8.05	7.89	7.39	8.44		
C#Cc1c(F)ccc2cc(O)cc(-c3ccc4c(N5C[C@@H]6C[C@H]5C(=O)N6)nc(OC[C@]56CCC[C@H]5N(C)CCC6)nc4c3F)c12 [Example 5-1, (1S,4S)-5-(2-{[(4aS,7aR)-1-methyl-octahydro-1H-cyclopenta[b]pyridin-4a-yl]methoxy}-7-(8-ethynyl-7-fluoro-3-hydroxynaphthalen-1-yl)-8-fluoroquinazolin-4-yl)-2,5-diazabicyclo[2.2.1]heptan-3-one]	6.06	6.08	5.60	6.62		
C#Cc1c(F)ccc2cc(O)cc(-c3ccc4c(N5CC6CCC(C5)N6C(=O)C5CC(F)(F)C5)nc(OC[C@@]56CCCN5C[C@H](F)C6)nc4c3F)c12 [Example 7-4, 4-(2-{[(2R,7aS)-2-fluoro-hexahydro-1H-pyrrolizin-7a-yl]methoxy}-4-[8-(3,3-difluorocyclobutanecarbonyl)-3,8-diazabicyclo[3.2.1]octan-3-yl]-8-fluoroquinazolin-7-yl)-5-ethynyl-6-fluoronaphthalen-2-ol]					5.18	> 8.70

Continued, values first:

pIC50 [1]	pIC50 [2]	pIC50 [3]	pIC50 [4]	pIC50 [5]	pIC50 [6]	Structure (SMILES)
				5.97	> 8.70	CN1CCC[C@@]2(COc3nc(N4CCC[C@@](C)(O)C4)c4cnc(-c5cc(O)ccc5C5CCC5)c(F)c4n3)CCC[C@@H]12 [Example 10-3, (3R)-1-(2-{[(4aS,7aR)-1-methyl-octahydro-1H-cyclopenta[b]pyridin-4a-yl]methoxy}-7-(2-cyclobutyl-5-hydroxyphenyl)-8-fluoropyrido[4,3-d]pyrimidin-4-yl)-3-methylpiperidin-3-ol]
				< 4.00	< 4.00	CN1CCC[C@@]2(COc3nc(N4CCC[C@@](C)(O)C4)c4cnc(-c5cn(C(F)F)c(=O)c6ccccc56)c(F)c4n3)CCC[C@@H]12 [Example 10-6, 4-(2-{[(4aS,7aR)-1-methyl-octahydro-1H-cyclopenta[b]pyridin-4a-yl]methoxy}-8-fluro-4-[(3R)-3-hydroxy-3-methylpiperidin-1-yl]pyrido[4,3-d]pyrimidin-7-yl)-2-(difluoromethyl)-1,2-dihydroisoquinolin-1-one]
				< 4.00	< 4.00	CN1CCC[C@@]2(COc3nc(N4CCC[C@@](C)(O)C4)c4cnc(-c5cnc(OC(F)F)c6ccccc56)c(F)c4n3)CCC[C@@H]12 [Example 10-7, (3R)-1-(2-{[(4aS,7aR)-1-methyl-octahydro-1H-cyclopenta[b]pyridin-4a-yl]methoxy}-7-[1-(difluoromethoxy)isoquinolin-4-yl]-8-fluoropyrido[4,3-d]pyrimidin-4-yl)-3-methylpiperidin-3-ol]
				< 4.00	< 4.00	CN1CCC[C@@]2(COc3nc(N4CCC[C@@](C)(O)C4)c4cnc(-c5cn(C(F)F)c(=O)c6ccc(C(F)(F)F)cc56)c(F)c4n3)CCC[C@@H]12 [Example 10-8, 4-(2-{[(4aS,7aR)-1-methyl-octahydro-1H-cyclopenta[b]pyridin-4a-yl]methoxy}-8-fluoro-4-[(3R)-3-hydroxy-3-methylpiperidin-1-yl]pyrido[4,3-d]pyrimidin-7-yl)-2-(difluoromethyl)-6-(trifluoromethyl)-1,2-dihydroisoquinolin-1-one]
